This assay addresses Beta-3 Adrenergic Receptor (Homo sapiens (Human), UniProt P13945). In words: HTRF cAMP antagonist assay (IC50 determination). In kind it is cell-based. The note with it: CHO-K1 cells stably expressing recombinant receptor; antagonism of isoproterenol at EC90; cAMP readout. The gist of the method: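 CHO-K1 cells stably expressing the recombinant receptor were preincubated with compound (10-point, 5-fold dilutions; top final typically 10 or 100 μM) in PBS with 1 mM IBMX, then stimulated with isoproterenol at its EC90 for 1 h at room temperature. cAMP was read by HTRF against an on-plate standard curve.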
In general terms: TR-FRET usually uses a lanthanide donor and a delayed reading to cut background.

The values below come from patent US10927123B2, “Modulators of the beta-3 adrenergic receptor useful for the treatment or prevention of disorders related thereto” (Arena Pharmaceuticals, Inc., priority 2016, dated 2021).

The IC50 is the concentration at which inhibition is half-maximal.

Structures are written as SMILES.

Chain of Beta-3 Adrenergic Receptor (P13945 whole entry, species assumed): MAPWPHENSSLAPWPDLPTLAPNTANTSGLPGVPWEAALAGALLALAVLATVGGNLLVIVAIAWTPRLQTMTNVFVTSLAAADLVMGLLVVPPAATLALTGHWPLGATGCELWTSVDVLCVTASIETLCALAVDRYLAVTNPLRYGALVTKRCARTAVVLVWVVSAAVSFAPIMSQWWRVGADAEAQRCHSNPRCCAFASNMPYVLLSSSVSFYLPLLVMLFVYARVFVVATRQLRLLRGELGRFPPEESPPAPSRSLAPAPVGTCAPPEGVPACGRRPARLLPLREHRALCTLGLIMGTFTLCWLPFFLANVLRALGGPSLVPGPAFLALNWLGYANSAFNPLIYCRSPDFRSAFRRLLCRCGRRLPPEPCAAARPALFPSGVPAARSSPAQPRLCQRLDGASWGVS

As to `Cc1c(-c2ccc(C3(N)CC3)cc2)cccc1S(=O)(=O)N1CCC2(CC1)C[C@H](NC[C@H](O)COc1cccc(S(=O)(=O)C3(CO)CC3)c1)CO2` [Compound 198, (S)-1-((S)-8-(4′-(1-aminocyclopropyl)-2-methylbiphenyl-3-ylsulfonyl)-1-oxa-8-azaspiro[4.5]decan-3-ylamino)-3-(3-(1-(hydroxymethyl)cyclopropylsulfonyl)phenoxy)propan-2-ol], the IC50 came out at 62.2 nM. As to `COc1ccc(S(=O)(=O)N2CCC3(CC2)C[C@@H](NC[C@H](O)COc2cccc(S(=O)(=O)C4(CO)CC4)c2)CO3)cc1-c1ccc(C2(N)CC2)cc1` [Compound 199, (S)-1-((R)-8-(4′-(1-aminocyclopropyl)-6-methoxybiphenyl-3-ylsulfonyl)-1-oxa-8-azaspiro[4.5]decan-3-ylamino)-3-(3-(1-(hydroxymethyl)cyclopropylsulfonyl)phenoxy)propan-2-ol], the half-inhibitory concentration (IC50) was determined as 25 nM. For `Cc1c(Br)cccc1S(=O)(=O)N1CCC2(CC1)C[C@H](NC[C@H](O)COc1cccc(S(=O)(=O)C3(CO)CC3)c1)CO2` [Compound 200, (S)-1-((S)-8-(3-bromo-2-methylphenylsulfonyl)-1-oxa-8-azaspiro[4.5]decan-3-ylamino)-3-(3-(1-(hydroxymethyl)cyclopropylsulfonyl)phenoxy)propan-2-ol], the IC50 came to 72.4 nM. Regarding `COc1ccc(S(=O)(=O)N2CCC3(CC2)C[C@H](NC[C@H](O)COc2cccc(S(=O)(=O)C4(CO)CC4)c2)CO3)cc1Br` [Compound 201, (S)-1-((S)-8-(3-bromo-4-methoxyphenylsulfonyl)-1-oxa-8-azaspiro[4.5]decan-3-ylamino)-3-(3-(1-(hydroxymethyl)cyclopropylsulfonyl)phenoxy)propan-2-ol], the IC50 is 41.8 nM. The value for `O=S(=O)(c1cccnc1)N1CCC2(CC1)C[C@H](NC[C@H](O)COc1cccc(S(=O)(=O)C3(CO)CC3)c1)CO2` [Compound 202, (S)-1-(3-(1-(hydroxymethyl)cyclopropylsulfonyl)phenoxy)-3-((S)-8-(pyridin-3-ylsulfonyl)-1-oxa-8-azaspiro[4.5]decan-3-ylamino)propan-2-ol] was 346 nM; that for `Cc1c(-c2ccc(CN)cc2)cccc1S(=O)(=O)N1CCC2(CC1)C[C@@H](NC[C@H](O)COc1cccc(S(=O)(=O)C3(CO)CC3)c1)CO2` [Compound 203, (S)-1-((R)-8-(4′-(aminomethyl)-2-methylbiphenyl-3-ylsulfonyl)-1-oxa-8-azaspiro[4.5]decan-3-ylamino)-3-(3-(1-(hydroxymethyl)cyclopropylsulfonyl)phenoxy)propan-2-ol] was 1110 nM. The value for `Cc1c(-c2ccc(C3(N)CC3)cc2)cccc1S(=O)(=O)N1CCC2(CC1)C[C@@H](NC[C@H](O)COc1cccc(S(=O)(=O)C3(CO)CC3)c1)CO2` [Compound 204, (S)-1-((R)-8-(4′-(1-aminocyclopropyl)-2-methylbiphenyl-3-ylsulfonyl)-1-oxa-8-azaspiro[4.5]decan-3-ylamino)-3-(3-(1-(hydroxymethyl)cyclopropylsulfonyl)phenoxy)propan-2-ol] was 504 nM; that for `CCOc1ccc(-c2ccc(CN)cc2)cc1S(=O)(=O)N1CCC2(CC1)C[C@H](NC[C@H](O)COc1cccc(S(=O)(=O)CC(N)=O)c1)CO2` [Compound 205, 2-(3-((S)-3-((S)-8-(4′-(aminomethyl)-4-ethoxybiphenyl-3-ylsulfonyl)-1-oxa-8-azaspiro[4.5]decan-3-ylamino)-2-hydroxypropoxy)phenylsulfonyl)acetamide] was 92.2 nM. In the case of `COc1c(-c2ccc(CN)cc2)cccc1S(=O)(=O)N1CCC2(CC1)C[C@H](NC[C@H](O)COc1cccc(S(=O)(=O)CC(N)=O)c1)CO2` [Compound 206, 2-(3-((S)-3-((S)-8-(4′-(aminomethyl)-2-methoxybiphenyl-3-ylsulfonyl)-1-oxa-8-azaspiro[4.5]decan-3-ylamino)-2-hydroxypropoxy)phenylsulfonyl)acetamide] it was 403 nM. As to `COc1ccc(S(=O)(=O)N2CCC3(CC2)C[C@H](NC[C@H](O)COc2cccc(S(=O)(=O)C4(CO)CC4)c2)CO3)cc1-c1ccc(CN)cc1` [Compound 207, (S)-1-((S)-8-(4′-(aminomethyl)-6-methoxybiphenyl-3-ylsulfonyl)-1-oxa-8-azaspiro[4.5]decan-3-ylamino)-3-(3-(1-(hydroxymethyl)cyclopropylsulfonyl)phenoxy)propan-2-ol], the IC50 is 51.1 nM. In the case of `COc1ccc(S(=O)(=O)N2CCC3(CC2)C[C@@H](NC[C@H](O)COc2cccc(S(=O)(=O)C4(CO)CC4)c2)CO3)cc1-c1ccc(CN)cc1` [Compound 208, (S)-1-((R)-8-(4′-(aminomethyl)-6-methoxybiphenyl-3-ylsulfonyl)-1-oxa-8-azaspiro[4.5]decan-3-ylamino)-3-(3-(1-(hydroxymethyl)cyclopropylsulfonyl)phenoxy)propan-2-ol] it was 34.8 nM. For `CCOc1ccc(-c2ccc(CN)cc2)cc1S(=O)(=O)N1CCC2(CC1)C[C@H](NC[C@H](O)COc1cccc(S(C)(=O)=O)c1F)CO2` [Compound 209, (S)-1-((S)-8-(4′-(aminomethyl)-4-ethoxybiphenyl-3-ylsulfonyl)-1-oxa-8-azaspiro[4.5]decan-3-ylamino)-3-(2-fluoro-3-(methylsulfonyl)phenoxy)propan-2-ol], the half-inhibitory concentration (IC50) was determined as 8.79 nM.

`NCCc1ccc(-c2cccc(S(=O)(=O)N3CCC4(CC3)C[C@H](NC[C@H](O)COc3cccc(S(=O)(=O)C(F)(F)CO)c3)CO4)c2)cc1` [Compound 210, (S)-1-((S)-8-(4′-(2-aminoethyl)biphenyl-3-ylsulfonyl)-1-oxa-8-azaspiro[4.5]decan-3-ylamino)-3-(3-(1,1-difluoro-2-hydroxyethylsulfonyl)phenoxy)propan-2-ol]: the IC50 was determined as 22.4 nM.

Regarding `NCCc1ccc(-c2cccc(S(=O)(=O)N3CCC4(CC3)C[C@H](NC[C@H](O)COc3cccc(S(=O)(=O)C5(CO)CC5)c3)CO4)c2)cc1` [Compound 211, (S)-1-((S)-8-(4′-(2-aminoethyl)biphenyl-3-ylsulfonyl)-1-oxa-8-azaspiro[4.5]decan-3-ylamino)-3-(3-(1-(hydroxymethyl)cyclopropylsulfonyl)phenoxy)propan-2-ol], the IC50 turned out to be 26.2 nM. Take `NCCc1ccc(-c2cccc(S(=O)(=O)N3CCC4(CC3)C[C@@H](NC[C@H](O)COc3cccc(S(=O)(=O)C5(CO)CC5)c3)CO4)c2)cc1` [Compound 212, (S)-1-((R)-8-(4′-(2-aminoethyl)biphenyl-3-ylsulfonyl)-1-oxa-8-azaspiro[4.5]decan-3-ylamino)-3-(3-(1-(hydroxymethyl)cyclopropylsulfonyl)phenoxy)propan-2-ol]: the 50% inhibitory concentration (IC50) worked out at 26 nM.

Take `NCCc1ccc(-c2cccc(S(=O)(=O)N3CCC4(CC3)C[C@@H](NC[C@H](O)COc3cccc(S(=O)(=O)C(F)(F)CO)c3)CO4)c2)cc1` [Compound 213, (S)-1-((R)-8-(4′-(2-aminoethyl)biphenyl-3-ylsulfonyl)-1-oxa-8-azaspiro[4.5]decan-3-ylamino)-3-(3-(1,1-difluoro-2-hydroxyethylsulfonyl)phenoxy)propan-2-ol]: the concentration for half-maximal inhibition (IC50) stood at 18.6 nM.
